Experimental data reported in the NIST ThermoML archive (doi:10.1021/je800672r).

Assay: wn = mass fraction of the nth substance listed
Settings: Liquid

NCC(=O)[O-].[Na+] [sodium glycinate] + O
mass density [kg/m3]
Settings | 298.15 K | 313.15 K | 323.15 K | 333.15 K | 343.15 K | 353.15 K
w1 = 0.01 | 1011.96 | 1002 | – | 996.72 | 990.16 | 985.36
w1 = 0.05 | 1015.92 | 1010.56 | 1005.12 | 1000.12 | 993.24 | 987.2
w1 = 0.1 | 1034.52 | 1029.68 | 1022.56 | 1017.56 | 1010.76 | 1005.32
w1 = 0.15 | 1055.6 | 1048.32 | 1042.92 | 1036.72 | 1030.08 | 1023.64
w1 = 0.2 | 1083.52 | 1076.44 | 1071 | 1066.48 | 1061.2 | 1054.48
w1 = 0.3 | 1130.4 | 1118 | 1112.76 | 1107.48 | 1101.44 | 1094.52
